What was measured:
Assay in all cases: Antibacterial activity assay (MIC, broth dilution)
Type in all cases: cell-based
Enterococcus faecium = conditions: Enterococcus faecium; Table 16; CLSI M07-A10 dilution method; read-out: MIC E. faecium
Description: (§1) Determination of the Minimal Inhibitory Concentrations (MIC) by dilution was carried out by broth dilution according to CLSI standards. See CLSI, Methods for Dilution Antimicrobial Susceptibility Tests for Bacteria That Grow Aerobically; Approved Standard—Eighth Edition. 2009, the contents of which are hereby incorporated by reference. Briefly, the minimum inhibitory concentration MIC, is the lowest concentration of a compound that prevents visible growth of a bacterium, in other words at which it has bacteriostatic activity.
For these tests, cation-adjusted Mueller Hinton broth, containing 10% brain-heart infusion (BHI) was used. Concentrations (MIC) are given in μg/mL. The compound was […].
(§2) Compounds were tested for MIC by methods known in the art and described in CLSI, Methods for Dilution Antimicrobial Susceptibility Tests for Bacteria That Grow Aerobically; Approved Standard—Tenth Edition. CLSI document M07-A10. Wayne, Pa.: Clinical and Laboratory Standards Institute, 2015, which is hereby incorporated by reference for these methods.
(§3) Selected compounds also were tested by broth microdilution methods known in the art and described in CLSI, Methods for Dilution Antimicrobial Susceptibility Tests for Bacteria That Grow Aerobically; Approved Standard—Tenth Edition. CLSI document M07-A10. Wayne, Pa.: Clinical and Laboratory Standards Institute, 2015, which is hereby incorporated by reference. Structures of selected compounds in the tables are listed below.

Staphylococcus aureus = conditions: Staphylococcus aureus; Table 16; CLSI M07-A10 dilution method; read-out: MIC S. aureus
Acinetobacter baumannii = conditions: Acinetobacter baumannii; Table 16; CLSI M07-A10 dilution method; read-out: MIC A. baumannii
Description: as §1, §2, §3

Row | Structure (SMILES) | MIC (Enterococcus faecium) [mg/L] | MIC (Staphylococcus aureus) [mg/L] | MIC (Acinetobacter baumannii) [mg/L]
1 | CC[n+]1c(/C=C/c2ccc(N(C)C)cc2)cc(-c2ccc(Br)cc2)cc1-c1ccc(C)cc1.[I-] [Compound 9e1, (E)-4-(4-bromophenyl)-2-(4-(dimethylamino)styryl)-1-ethyl-6-(p-tolyl)pyridin-1-ium iodide] | 2 | 2 | 4
2 | Cc1ccc(-c2cc(/C=C/c3ccc(N(C)C)cc3)[n+](C)c(-c3ccc(Br)cc3)c2)cc1 [Compound 9a] | 4 | 0.5 | 4
3 | CCN(CC)c1ccc(/C=C/c2cc(-c3cc(OC)c(Br)c(OC)c3)cc(-c3ccc(Br)cc3)[n+]2C)cc1.[I-] [Compound 9y2, (E)-4-(4-bromo-3,5-dimethoxyphenyl)-2-(4-bromophenyl)-6-(4-(diethylamino)-styryl)-1-methylpyridin-1-ium iodide] | 4 | 1 | 8
4 | Cc1ccc(-c2cc(-c3ccc(Cl)cc3)cc(/C=C/c3ccc(N(C)CCC#N)cc3)[n+]2C)cc1.[I-] [Compound 9q, (E)-4-(4-chlorophenyl)-2-(4-((2-cyanoethyl)(methyl)amino)styryl)-1-methyl-6-(p-tolyl)pyridin-1-ium iodide] | 2 | 0.25 | 16
5 | CCN(C)c1ccc(/C=C/c2cc(-c3ccc(Br)cc3)cc(-c3ccc(Br)cc3)[n+]2C)cc1.[I-] [Compound 9h, (E)-2,4-bis(4-bromophenyl)-6-(4-(ethyl(methyl)amino)styryl)-1-methylpyridin-1-ium iodide] | 8 | 16 | 8
6 | CCN(CC)c1ccc(/C=C/c2cc(-c3ccc(Br)cc3)cc(-c3cccc(Br)c3)[n+]2C)cc1.[I-] [Compound 9m, (E)-2-(3-bromophenyl)-4-(4-bromophenyl)-6-(4-(diethylamino)styryl)-1-methylpyridin-1-ium iodide] | 4 | 8 | 8
7 | CN(C)c1ccc(/C=C/c2cc(-c3ccc(Cl)cc3)cc(-c3ccc(Br)cc3)[n+]2C)cc1.[I-] [Compound 9c, (E)-2-(4-bromophenyl)-4-(4-chlorophenyl)-6-(4-(dimethylamino)styryl)-1-methylpyridin-1-ium iodide] | 4 | 0.5 | 16
8 | Cc1ccc(-c2cc(-c3ccc(Br)cc3)cc(/C=C/c3ccc(N(C)CCO)cc3)[n+]2C)cc1C.[I-] [Compound 9x, (E)-4-(4-bromophenyl)-2-(3,4-dimethylphenyl)-6-(4-((2-hydroxyethyl)(methyl)-amino)styryl)-1-methylpyridin-1-ium iodide] | 8 | 1 | 16
9 | CCN(CC)c1ccc(/C=C/c2cc(-c3ccc(Cl)cc3)cc(-c3ccc(C)cc3)[n+]2C)cc1.[I-] [Compound 9o, (E)-4-(4-chlorophenyl)-2-(4-(diethylamino)styryl)-1-methyl-6-(p-tolyl)pyridin-1-ium iodide] | 16 | 32 | 16
10 | CN(CCO)c1ccc(/C=C/c2cc(-c3ccc(Br)cc3Cl)cc(-c3ccc(Br)cc3)[n+]2C)cc1.[I-] [Compound 9z3, (E)-4-(4-bromo-2-chlorophenyl)-2-(4-bromophenyl)-6-(4-((2-hydroxyethyl)-(methyl)amino)styryl)-1-methylpyridin-1-ium iodide] | 4 | 2 | 16
11 | CCC[n+]1c(/C=C/c2ccc(N(C)C)cc2)cc(-c2ccc(Br)cc2)cc1-c1ccc(C)cc1.[I-] [Compound 9e3, (E)-4-(4-bromophenyl)-2-(4-(dimethylamino)styryl)-1-propyl-6-(p-tolyl)-pyridin-1-ium iodide] | 2 | 0.5 | 2
12 | COc1cc(-c2cc(/C=C/c3ccc(N(C)C)cc3)[n+](C)c(-c3ccc(Br)cc3)c2)cc(OC)c1Br.[I-] [Compound 9y1, (E)-4-(4-bromo-3,5-dimethoxyphenyl)-2-(4-bromophenyl)-6-(4-(dimethyl-amino)styryl)-1-methylpyridin-1-ium iodide] | 8 | 2 | 16
13 | CN(CCC#N)c1ccc(/C=C/c2cc(-c3ccc(Br)cc3Cl)cc(-c3ccc(Br)cc3)[n+]2C)cc1.[I-] [Compound 9z4, (E)-4-(4-bromo-2-chlorophenyl)-2-(4-bromophenyl)-6-(4-((2-cyanoethyl)-(methyl)amino)styryl)-1-methylpyridin-1-ium iodide] | 4 | 2 | 32
14 | CN(C)c1ccc(/C=C/c2cc(-c3ccc(Br)cc3)cc(-c3cccc(Br)c3)[n+]2C)cc1.[I-] [Compound 9l, (E)-2-(3-bromophenyl)-4-(4-bromophenyl)-6-(4-(dimethylamino)styryl)-1-methylpyridin-1-ium iodide] | 4 | 8 | 16
15 | CC[n+]1c(/C=C/c2ccc(N(C)CCO)cc2)cc(-c2ccc(Br)cc2)cc1-c1ccc(C)cc1 [Compound 9e2] | 4 | 2 | 4
16 | COc1cc(-c2cc(/C=C/c3ccc(N(C)CCC#N)cc3)[n+](C)c(-c3ccc(Br)cc3)c2)cc(OC)c1Br.[I-] [Compound 9y4, (E)-4-(4-bromo-3,5-dimethoxyphenyl)-2-(4-bromophenyl)-6-(4-((2-cyano-ethyl)(methyl)amino)styryl)-1-methylpyridin-1-ium iodide] | 8 | 4 | 8
17 | CN(CCO)c1ccc(/C=C/c2cc(-c3ccc(Br)cc3)cc(-c3ccc(Br)cc3)[n+]2C)cc1.[I-] [Compound 9g, (E)-2,4-bis(4-bromophenyl)-6-(4-((2-hydroxyethyl)(methyl)amino)styryl)-1-methylpyridin-1-ium iodide] | 8 | 16 | 32
18 | CCN(CC)c1ccc(/C=C/c2cc(-c3ccc(Br)cc3)cc(-c3ccc(C)cc3C)[n+]2C)cc1.[I-] [Compound 9r, (E)-4-(4-bromophenyl)-2-(4-(diethylamino)styryl)-6-(2,4-dimethylphenyl)-1-methylpyridin-1-ium iodide] | 1 | 0.5 | 8
19 | CCN(CC)c1ccc(/C=C/c2cc(-c3ccc(Br)cc3Cl)cc(-c3ccc(Br)cc3)[n+]2C)cc1.[I-] [Compound 9z2, (E)-4-(4-bromo-2-chlorophenyl)-2-(4-bromophenyl)-6-(4-(diethylamino)-styryl)-1-methylpyridin-1-ium iodide] | 1 | 0.5 | 2
20 | CCN(CC)c1ccc(/C=C/c2cc(-c3ccc(Br)cc3)cc(-c3ccc(Br)cc3)[n+]2C)cc1F.[I-] [Compound 9j, (E)-2,4-bis(4-bromophenyl)-6-(4-(diethylamino)-3-fluorostyryl)-1-methyl-pyridin-1-ium iodide] | 32 | 32 | 64
21 | Cc1ccc(-c2cc(-c3ccc(Cl)cc3)cc(/C=C/c3ccc(N(C)C)cc3)[n+]2C)cc1.[I-] [Compound 9n, (E)-4-(4-chlorophenyl)-2-(4-(dimethylamino)styryl)-1-methyl-6-(p-tolyl)-pyridin-1-ium iodide] | 2 | 4 | 4
22 | CN(C)c1ccc(/C=C/c2cc(-c3cccc(Br)c3)cc(-c3ccc(Br)cc3)[n+]2C)cc1 [Compound 9b] | 2 | 1 | 16

Source: patent US10941114B2, “Small molecule lipid II inhibitors” (University Of Maryland, Baltimore, priority 2015, dated 2021)
